Assay [1] concerns ERα-positive breast cancer. To be noted: cited from earlier work.
Assay [2] concerns ERα-positive/HER2-negative breast cancer. Description: Relapse-free survival of ERα-positive/HER2-negative breast cancer patients stratified by Fbxo22. It counts as in vivo, human. The note with it: patient group that had undergone the TAM treatment. The text has this:
FIGS. 9A and 9B show representative immunohistochemical staining images of a normal mammary gland (FIG. 9A), an Fbxo22-positive mammary gland of human breast cancer (FIG. 9B, left view), and an Fbxo22-negative mammary gland (FIG. 9B, right view). Scale bar: 20 μm. FIGS. 9C to 9F show Kaplan-Meier survival curves formed by stratifying ERα-positive/HER2-negative breast cancer (FIG. 9C), Luminal A (low Ki-67) breast cancer (FIG. 9D), lymph node metastasis-negative breast cancer (FIG. 9E), and tamoxifen-administered breast cancer (FIG. 9F) by the expression of Fbxo22. The P value and the hazard ratio were calculated according to a log-rank test.
Formalin fixing, paraffin embedding, core needle aspiration biopsy cytology panels, and the clinical data thereof, which were derived from 163 cases of continuously treated T2 (diameter: 2 to 5 cm) ERα-positive/HER-2-negative primary breast cancers, were obtained from patients who underwent surgery at St. Marianna University School of Medicine Hospital from 2005 to 2009. […] A tissue section was incubated with anti-Fbxo22 antibody (GTX117774, GeneTex) used as a primary antibody, which was diluted to 1:200, and was then detected using an HRP-polymer-labeled secondary antibody (Histofine Simple Stain MAX PO (multi), Nichirei, Japan). […] The Fbxo22-positive cells were evaluated according to a blind test conducted by two pathologist. […]

Assay [3] concerns T47D cells. Description: Colony formation assay, T47D cells. The format is cell-based, human. The note with it: Fbxo22-knocked-out T47D cells in the presence of E2 and 4-OHT, compared with control cells. How it is done:
The cells (5×10^2) were seeded on a 6-well plate, and were then cultured for 2 weeks. Thereafter, colonies were immobilized with methanol/acetic acid (1:1) for 15 minutes, and were then stained in 20% methanol/PBS containing 0.4% trypan blue (Sigma) for 15 minutes, followed by counting.

Assay [4] deals with ERα complex with KDM4B and SRC-3. How it is done: (§1) Using total RNA derived from individual cells recovered over time, qPCR was carried out. […] Using total RNA prepared from the treated cells, qPCR was carried out. […] Using the nucleus extract, immunoprecipitation and immunoblotting were carried out.
ERα complex with KDM4B and SRC-3, sequence (P03372 whole entry, one chain of several): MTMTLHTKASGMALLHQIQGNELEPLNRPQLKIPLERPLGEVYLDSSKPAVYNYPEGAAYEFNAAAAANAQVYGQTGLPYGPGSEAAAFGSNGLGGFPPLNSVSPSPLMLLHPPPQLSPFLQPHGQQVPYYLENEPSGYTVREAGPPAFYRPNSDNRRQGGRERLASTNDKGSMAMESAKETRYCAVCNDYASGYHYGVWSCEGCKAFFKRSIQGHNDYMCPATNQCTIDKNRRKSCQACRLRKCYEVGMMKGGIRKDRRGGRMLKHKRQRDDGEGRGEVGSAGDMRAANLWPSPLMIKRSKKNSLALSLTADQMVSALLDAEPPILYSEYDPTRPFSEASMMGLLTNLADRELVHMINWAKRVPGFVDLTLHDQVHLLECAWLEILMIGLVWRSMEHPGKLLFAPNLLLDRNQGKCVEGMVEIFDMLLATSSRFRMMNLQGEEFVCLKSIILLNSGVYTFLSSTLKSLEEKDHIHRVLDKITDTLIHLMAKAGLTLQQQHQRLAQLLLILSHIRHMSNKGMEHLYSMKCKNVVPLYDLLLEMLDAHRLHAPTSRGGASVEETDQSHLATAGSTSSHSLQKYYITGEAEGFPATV
(§2) The obtained cells were immunostained with anti-FLAG antibodies. Representative images are shown.
(§3) Total RNA was prepared from the cells treated with various drugs, and qPCR was carried out.
(§4) Immunoprecipitation and immunoblotting were carried out according to the method described in Johmura et al., Molecular Cell 55: 73-84, 2014. The cells were dissolved in a TBSN buffer (20 mM Tris-Cl (pH 8.0), 150 mM NaCl, 0.5% NP-40, 5 mM EGTA, 1.5 mM EDTA, and 0.5 mM Na3VO4). The obtained cell lysate was centrifuged at 4° C. at 15,000×g for 20 minutes, and was then used in immunoprecipitation using an antibody.
Regarding immunoprecipitation of ERα and KDM4B, a nuclear extract was prepared according to the method described in Hirokawa et al., Cancer Res. 74: 3880-3889, 2014. Cell pellets were suspended in buffer A (10 mM Hepes-KOH pH 7.9, 10 mM KCl, 1.5 mM MgCl2, 0.5 mM DTT, 0.5 mM PMSF, and protease inhibitor cocktail (Nakalai Tesque)) having five times the volume of the cell pellets, and the suspension was then incubated on ice for 5 minutes. Thereafter, the cells were centrifuged at 4° C. at 500×g for 5 minutes, and the obtained cell pellets were then suspended in buffer A having two times the volume of the cell pellets for homogenization. The homogenized cell suspension was centrifuged at 4° C. at 4,000×g for 5 minutes, and a cell nucleus was recovered in a precipitate. To the recovered nucleus, an equal amount of buffer B (20 mM Hepes-KOH pH 7.9, 600 mM KCl, 1.5 mM MgCl2, 0.2 mM EDTA, 25% glycerol, 0.5 mM DTT, 0.5 mM PMSF, and protease inhibitor cocktail) was added and suspended, and the obtained mixture was then blended at 4° C. for 30 minutes, using a rotator. The nuclear extract was centrifuged at 4° C. at 16,000×g for 15 minutes, and was then recovered in a supernatant. The nuclear extract was dialyzed against buffer C (20 mM Hepes-KOH pH 7.9, 100 mM KCl, 0.2 mM EDTA, 20% glycerol, 0.5 mM DTT, and 0.5 mM PMSF). After completion of the dialysis, the nuclear extract was centrifuged at 4° C. at 16,000×g for 30 minutes, and the remaining precipitate was then eliminated.
A protein (20 to 50 μg) was separated from the total cell lysate by SDS-PAGE, and was then transferred into a PVDF membrane (Millipore), which was then used in immunoblotting using various types of antibodies.

Assay [5] deals with ERα-dependent transcription. As to the kind of experiment: qPCR of ERα target gene transcripts (EBAG9, GREB1) in MCF-7 cells. The format is cell-based, human. As to the method: as §1
Using total RNA prepared from the cells over time, qPCR was carried out.
as §3
The cells were washed with PBS three times, and were then cultured in phenol red-non-added DMEM (supplemented with 5% charcoal-stripped FBS) for 72 hours.
(§5) Quantitative RT-PCR was carried out according to the method described in Johmura et al., Molecular Cell 55: 73-84, 2014. Total RNA was extracted using ISOGEN II (Wako), and using this as a template, cDNA was synthesized using SuperScript II cDNA synthesis kit (Invitrogen). PCR amplification was carried out in a 96-well optical reaction plate, using Power SYBR Green PCR Master Mix (Applied Biosystems). The relative expression ratio of individual genes was normalized with respect to the expression level of GAPDH.
A general note: In qPCR the cycle at which signal appears reflects the starting amount.

Assay [6] concerns T47D breast cancer cells. As to the kind of experiment: T47D cells transplanted into the mammary gland fat pad of NOD/Scid mice. It counts as in vivo, mouse. To be noted: NOD/Scid mice with Fbxo22-knocked-out T47D cells treated with 4-OHT pellets, compared with mice with control cells. As to the method: Representative colony images (upper view) and the results of the assay are shown. […] Ki-67-positive and cleaved caspase 3-positive cells were counted, and the counted numbers were then normalized with respect to the cell nucleus in each section. *p<0.05, ***p<0.05. […] Thereafter, the cells were treated with trypsin, were then suspended in PBS, and were then mixed with Matrigel (CORNING 354230) at a mixing ratio of 1:1. […] Six weeks later, the mice were euthanized, the tumor was then excised, and the size of the tumor was then measured. Thereafter, the tumor was fixed with formalin and was then embedded in paraffin, and an HE stain slide glass was produced. The size of a tumor was evaluated as follows: V=(length×width×height×0.5326) mm^3. All of the mice were fed under a specific pathogen-free environment, and were treated in accordance with Animal Experiment Guidelines, Graduate School of Medicine and Faculty of Medicine, The University of Tokyo.

Assay [7] concerns FLAG-Fbxo22 binding to ERα. How it is done: as §4
FLAG-Fbxo22 binding to ERα, sequence (P03372 whole entry): as the sequence (P03372 whole entry, one chain of several) above
Assay [8] relates to ERα. To be noted: U2OS cells, Fbxo22 not expressed. As to the method: as §2, §5
In assay [9] the test system is KDM4B forming a complex with ERα.
KDM4B forming a complex with ERα, sequence (P03372 whole entry, one chain of several): as above
Assay [10] relates to ERα. As to the kind of experiment: ChIP-Seq analysis of ERα binding in MCF-7 cells. It counts as cell-based, human. To be noted: for ERα accumulation peaks detected: 2 hours, E2 line = E2 (10 nM), 4-OHT line = E2+4-OHT. The text has this: Thereafter, DNA was extracted using a DNA purification column.
Assay [11] concerns MCF-7 cells. Description: Colony formation assay, MCF-7 cells. It counts as cell-based, human. How it is done: Representative colony images (upper view) and the results of the assay are shown. […] Ki-67-positive and cleaved caspase 3-positive cells were counted, and the counted numbers were then normalized with respect to the cell nucleus in each section. *p<0.05, ***p<0.05. The cells (5×10^2) were seeded on a 6-well plate, and were then cultured for 2 weeks. Thereafter, colonies were immobilized with methanol/acetic acid (1:1) for 15 minutes, and were then stained in 20% methanol/PBS containing 0.4% trypan blue (Sigma) for 15 minutes, followed by counting.

For assay [12], the system named is CFP-LacER, YFP-SRC-1 and FLAG-KDM4B foci. To be noted: in the presence of E2 and 4-OHT. How it is done:
as §2
U205-LacO-I-SceI-TetO cells were cultured in a glass bottom dish (Iwaki) on the stage of BZ-9000 (Keyence) equipped with an environmental chamber (Keyence). The microscopic image was analyzed with BZ-9000 software.
In order to immobilize ERα on a Lac operator array stably incorporated into living cells, using a CFP-tagged lac receptor-ERα chimeric protein (CFP-LacER), accumulation of YFP-SRC-1 and KDM4B in an ERα-immobilized position was examined.

The values below come from patent US20220120753A1, “METHOD FOR DETERMINING PROGNOSIS OF CANCER” (The University of Tokyo, priority 2018, published 2022).

Where two headings read alike, the source gives them in different places.

CFP-LacER, YFP-SRC-1 and FLAG-KDM4B foci, sequence (P03372 311-547 limits assumed): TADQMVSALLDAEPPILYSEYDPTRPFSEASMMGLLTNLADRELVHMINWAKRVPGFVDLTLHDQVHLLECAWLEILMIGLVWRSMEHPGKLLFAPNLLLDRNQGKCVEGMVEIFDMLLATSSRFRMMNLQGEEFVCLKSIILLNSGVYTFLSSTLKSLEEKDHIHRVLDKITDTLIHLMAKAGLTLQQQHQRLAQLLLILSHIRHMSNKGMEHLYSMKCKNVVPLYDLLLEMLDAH

On to `CC/C(=C(\c1ccccc1)c1ccc(OCCN(C)C)cc1)c1ccccc1` [TAM, Tamoxifen], for which the “reduction of annual breast cancer mortality rate” value in assay [1] (TAM therapy) was “approximately 30%”. In [1] (patients treated by TAM), the “early breast cancer patients with a recurrence within 15 years” value is “approximately 25%”. Further, the “prognosis (relapse-free survival) of Fbxo22-negative breast cancer” value in assay [2] is given as “extremely poor prognosis”.
4-hydroxytamoxifen [4-OHT]: in assay [3], the colony formation result is on record as “significantly promoted”. In assay [4] (Fbxo22-depleted MCF-7 cells, E2 then 4-OHT), the “cofactor dynamics (KDM4B/SRC-3 dissociation, N-CoR interaction with ERα)” value is “not observed”. In addition, the “complex of ERα with KDM4B and SRC-3” value in [4] (control MCF-7 cells stimulated by E2, then 4-OHT) is listed as “dissociated”. The “antagonistic activity of 4-OHT on transcription of EBAG9 and GREB1” value in [5] (Fbxo22-depleted MCF-7 cells) is on record as “suppressed”. For the same compound, the “time after addition of 4-OHT at which transcript levels of GREB1 and EBAG1 became minimum” value in assay [5] (MCF-7, E2-depleted 72 h, E2 10 nM, 4-OHT 100 nM added 6 hours after E2) is recorded as “Six”. For the same compound, the “transcription of EBAG9 and GREB1” value in assay [5] (control MCF-7 cells stimulated by E2, treated with 4-OHT) was “strongly suppressed”. Besides, the “tumor growth (tumor volume)” value in [6] is reported as “clear increase”. Further, the “FLAG-Fbxo22 binding to ERα” value in [7] is “recovered (increased)”. In addition, the “antagonistic activity of 4-OHT” value in assay [8] (wild-type ERα expressed, stimulated by E2) was “suppressed”; in assay [8] (Δ44 ERα expressed), “observed”. In addition, the “ubiquitination of KDM4B forming a complex with ERα” value in assay [9] is on record as “recovered”. In addition, the “ERα accumulation peaks detected” value is listed as 19,924 in assay [10] (Fbxo22-depleted MCF-7 cells) and 26,751 in assay [10] (wild-type/control MCF-7 cells). Further, in assay [10] (MCF-7 cells, E2+4-OHT versus E2), the “interaction of ERα with a target region” value is recorded as “does not affect”. For the same compound, the “accumulation of ERα in the promoter regions of GREB1 and IGFBP4 genes” value in assay [10] (control and Fbxo22-depleted MCF-7 cells, E2 line = E2, 4-OHT line = E2+4-OHT) is recorded as “maintained”. The figures for the “proliferation-suppressing effect of 4-OHT” value in assay [11] (Fbxo22-depleted MCF-7 cells) and in [11] (Fbxo22-depleted MCF-7 cells with Fbxo22 re-expressed (FLAG-Fbxo22)) were “reduced” and “recovered”, respectively. For the same compound, the “proliferation (colony formation) in the presence of E2” value in assay [11] (control MCF-7 cells, E2 10 nM, 4-OHT 100 nM) is on record as “completely suppressed”. For the same compound, the figures for the “colocalization of FLAG-KDM4B with CFP-LacER and YFP-SRC-1” value in assay [12] (Fbxo22-depleted cells) and in assay [12] (control cells) were “colocalized” and “not observed”, respectively.
